The target in this test is Non-receptor tyrosine-protein kinase TYK2 (Homo sapiens, UniProt P29597).

SMILES strings stand for the structures.

Sequence of Non-receptor tyrosine-protein kinase TYK2 (P29597 whole entry): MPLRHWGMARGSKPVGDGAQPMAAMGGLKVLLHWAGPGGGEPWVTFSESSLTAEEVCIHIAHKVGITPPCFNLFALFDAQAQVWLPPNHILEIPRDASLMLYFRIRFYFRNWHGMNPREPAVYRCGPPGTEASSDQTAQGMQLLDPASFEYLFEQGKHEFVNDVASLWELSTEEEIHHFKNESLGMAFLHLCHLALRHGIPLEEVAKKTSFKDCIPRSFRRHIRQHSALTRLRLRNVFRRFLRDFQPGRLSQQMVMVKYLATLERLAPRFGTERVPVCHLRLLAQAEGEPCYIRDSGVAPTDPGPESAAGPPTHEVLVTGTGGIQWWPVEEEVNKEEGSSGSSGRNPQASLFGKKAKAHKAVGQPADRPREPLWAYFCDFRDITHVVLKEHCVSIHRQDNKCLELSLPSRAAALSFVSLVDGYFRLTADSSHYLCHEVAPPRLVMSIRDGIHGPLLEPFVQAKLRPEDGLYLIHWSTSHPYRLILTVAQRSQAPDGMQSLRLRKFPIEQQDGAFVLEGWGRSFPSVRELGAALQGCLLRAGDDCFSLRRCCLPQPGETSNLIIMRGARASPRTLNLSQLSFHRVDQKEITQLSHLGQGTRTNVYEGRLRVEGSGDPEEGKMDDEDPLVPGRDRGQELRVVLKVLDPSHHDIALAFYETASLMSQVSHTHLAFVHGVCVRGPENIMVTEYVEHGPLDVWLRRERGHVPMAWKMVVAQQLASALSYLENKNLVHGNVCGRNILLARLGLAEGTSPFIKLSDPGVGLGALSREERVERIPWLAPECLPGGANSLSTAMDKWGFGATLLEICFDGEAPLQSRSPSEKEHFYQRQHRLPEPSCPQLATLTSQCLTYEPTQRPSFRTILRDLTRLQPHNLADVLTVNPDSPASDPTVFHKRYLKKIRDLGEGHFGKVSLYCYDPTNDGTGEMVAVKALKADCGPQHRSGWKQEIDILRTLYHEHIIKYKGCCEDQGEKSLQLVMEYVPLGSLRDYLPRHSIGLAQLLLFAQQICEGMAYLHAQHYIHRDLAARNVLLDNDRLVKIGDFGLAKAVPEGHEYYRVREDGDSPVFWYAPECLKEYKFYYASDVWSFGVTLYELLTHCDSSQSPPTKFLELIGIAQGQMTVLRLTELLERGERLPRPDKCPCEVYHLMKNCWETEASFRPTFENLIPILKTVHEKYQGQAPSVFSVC

Usually IC50 stands for the concentration needed to halve the response being measured. The compound `Cn1cc(-c2cc3c(N4C[C@H]5CC[C@@H](C4)N5[C@H]4C[C@@H](C#N)C4(C)C)ccnn3c2)cn1` returned a 50% inhibitory concentration (IC50) of 2.33 nM.

The values are drawn from ChEMBL document CHEMBL6096715, “Novel TYK2 Inhibitors for Treating Autoimmune and Inflammatory Diseases” (ACS Med Chem Lett, 2025).
